In PubChem BioAssay AID652153 (Molecular Libraries Program, Specialized Chemistry Center, …, 2013):
pIC50: −log10 of the molar value. Activity calls are given as the source filed them. No rule for the calls is given here.

Molecular target: Rac GTPase-activating protein 1 (Homo sapiens) (UniProt Q9H0H5)
Assay: MgcRacGAP inhibitors, selectivity among RhoGAPs, dose response, selectivity assay, biochemical (AID 652153)
Settings: MgcRacGAP GAP activity on Rac1F28L, Biomol green phosphate

Sequence of Rac GTPase-activating protein 1 (Homo sapiens) (Q9H0H5 whole entry, looked up): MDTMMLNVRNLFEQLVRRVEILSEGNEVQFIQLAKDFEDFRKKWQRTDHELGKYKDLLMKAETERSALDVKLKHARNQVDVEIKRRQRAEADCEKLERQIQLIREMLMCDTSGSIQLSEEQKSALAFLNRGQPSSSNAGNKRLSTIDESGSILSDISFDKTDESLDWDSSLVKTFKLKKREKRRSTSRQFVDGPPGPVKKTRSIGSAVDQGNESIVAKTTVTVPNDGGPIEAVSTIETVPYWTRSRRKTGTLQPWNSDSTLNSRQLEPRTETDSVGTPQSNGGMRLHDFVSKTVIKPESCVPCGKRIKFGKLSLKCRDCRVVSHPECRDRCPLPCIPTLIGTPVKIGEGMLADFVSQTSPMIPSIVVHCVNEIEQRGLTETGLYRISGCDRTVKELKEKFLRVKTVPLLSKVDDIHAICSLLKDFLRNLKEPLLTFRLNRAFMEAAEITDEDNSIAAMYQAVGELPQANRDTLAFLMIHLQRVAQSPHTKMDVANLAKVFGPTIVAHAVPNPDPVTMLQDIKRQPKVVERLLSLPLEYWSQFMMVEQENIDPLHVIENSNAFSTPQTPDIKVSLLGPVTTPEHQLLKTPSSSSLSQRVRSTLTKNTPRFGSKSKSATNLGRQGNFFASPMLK

Row | Compound | pIC50 | IC50
1 | CC(=O)Nc1ccc2sn(-c3ccccc3)c(=O)c2c1 | 6.19 | 
2 | O=C1C=CC(=O)N1c1ccccc1N1C(=O)C=CC1=O |  | inactive
3 | CN(C)c1nc(=NCc2cccs2)ss1 |  | inactive
4 | O=c1c2ccccc2sn1-c1ccccc1F |  | inactive
5 | O=c1c2ccccc2sn1-c1cccc(Cl)c1 | 6.16 | 
6 | O=c1c2ccccc2sn1-c1ccc(Cl)cc1 |  | inactive
7 | O=C1C(SCCO)=C(SCCO)C(=O)c2ccccc21 |  | inactive
8 | O=C(O)c1cc(N2N=C(C(F)(F)F)/C(=C/C=C/c3ccco3)C2=O)ccc1Cl |  | inactive
9 | O=c1c2ccc(F)cc2sn1-c1ccccc1 |  | inactive
10 | O=C1C(Cl)=C(NC(=O)c2ccccc2)C(=O)C(Cl)=C1NC(=O)c1ccccc1 |  | inactive
11 | O=c1c2cc(F)ccc2sn1-c1ccccc1Cl | 6.04 | 
12 | CC1OC(CC(=O)O)CC2=C1C(=O)c1c(O)cccc1C2=O (stereo unspecified) |  | inactive
13 | O=C1C=CC(=O)c2c(O)c(N3CCN(CCOCCO)CC3)c(Br)c(O)c21 |  | inactive
14 | O=C(O)c1cccc(-n2sc3ccccc3c2=O)c1 |  | inactive
15 | COc1ccc(NC2CCCN(C(=O)C3(C)CCCCC3)C2)cc1 (stereo unspecified) |  | inactive
16 | CN(C)c1ccc(C=c2c3cc(O)ccc3n3c2cc(-c2ccccc2)[n+]3C)cc1 |  | inactive
17 | O=C(O)C1CSC(c2ccco2)N1 (stereo unspecified) |  | inactive
18 | Cc1cc(N)c2cc(NC(=O)/C=C/c3ccccc3Cl)ccc2n1 |  | inactive
19 | Nc1ccc(OCc2ccco2)cc1 |  | inactive
20 | O=c1c2cc(F)ccc2sn1-c1ccccc1 |  | inactive
21 | CC1=NNC(=O)C1Br (stereo unspecified) |  | inactive
22 | Nc1n[nH]c(=S)n1/N=C1/C(=O)Nc2ccccc21 |  | inactive
23 | Cc1cc(C)c2c(=N)c3ccccc3n(CCCCCCCCn3c4ccccc4c(=N)c4c(C)cc(C)nc43)c2n1 |  | inactive

Row | Compound | pIC50 | IC50
24 | O=C(Nc1ccccc1Cl)/C(Cl)=C(\Cl)S(=O)c1ccccc1 (stereo unspecified) |  | inactive
25 | Cn1ccc(=Nc2ccc(NC(=O)c3ccc(N=c4ccn(C)c5ccc([N+](=O)[O-])cc45)cc3)cc2)cc1 | 6.03 | 
26 | CN(C)c1ncc(C2=C(Cl)C(=O)C(N3CCCC3)=C(Cl)C2=O)s1 |  | inactive
27 | O=C1C=CC(=O)c2c(O)c(N3CCN(CCO)CC3)c(Cl)c(O)c21 |  | inactive
28 | COc1ccc(Nc2ccc3ccccc3c2)cc1 |  | inactive
29 | O=c1c2ccccc2sn1-c1ccc(Cl)cc1Cl |  | inactive
30 | O=C(O)c1cc(N2C(=O)C=CC2=O)cc(N2C(=O)C=CC2=O)c1 |  | inactive
31 | CN(C)c1ccc(/C=C/c2cc[n+](C)c3ccccc23)cc1 |  | inactive
32 | C[n+]1c(-c2ccc(C=NNC(=O)c3ccc(C(=O)NN=Cc4ccc(-c5cn6ccccc6[n+]5C)cc4)cc3)cc2)cn2ccccc21 |  | inactive
33 | O=C1NC(=S)N(c2ccccc2)C(=O)/C1=C/c1ccco1 |  | inactive
34 | Cc1c(Cl)sn(-c2ccc(Cl)cc2)c1=O |  | inactive
35 | CCN(CC)c1ccc(C(=C2C=CC(=[N+](CC)CC)C=C2)c2ccc(N(CC)CC)cc2)cc1 |  | inactive
36 | Cc1ccc(C)c(-n2sc3ccc(F)cc3c2=O)c1 |  | inactive
37 | COc1ccc(-n2sc3ccc(F)cc3c2=O)cc1 |  | inactive
38 | O=c1c2sc3ccccc3c2[nH]c(=S)n1CCN1CCOCC1 |  | inactive
39 | COc1ccc(-n2sc3ccccc3c2=O)cc1 |  | inactive
40 | O=c1c2ccccc2sn1-c1ccc(F)cc1 |  | inactive
41 | COc1ccc(/C=N/Nc2cc(C)nc3ccc(OC)cc23)c(OC)c1 |  | inactive
42 | O=C1C(=Cc2ccco2)CCC1=Cc1ccco1 |  | inactive
43 | CSc1nc(N)c(N=Nc2ccc([As](=O)(O)O)cc2)c(=O)[nH]1 |  | inactive
44 | COC(=O)c1cccc(-n2sc3ccccc3c2=O)c1 |  | inactive
45 | Cc1ccc(-n2sc3cc(F)ccc3c2=O)c(C)c1 |  | inactive
46 | CCN1CCN(Cc2ccc(NC(=O)c3ccc(C)c(/C=C/c4cnc(Nc5cc(N6CCNCC6)nc(C)n5)cn4)c3)cc2C(F)(F)F)CC1 |  | inactive
